Results on 8 compounds are retold here after article PMC6287197, “Eukaryotic Cell Toxicity and HSA Binding of [Ru(Me4phen)(bb7)]^2+ and the Effect of Encapsulation in Cucurbit[10]uril” (Frontiers in Chemistry, 2018).

In data set [1] the test system is Hep-G2 (human hepatocellular carcinoma) cell line. Briefly: MTT toxicity assay against Hep-G2 cells. It counts as cell-based. The method, then:
(§1) BHK (baby hamster kidney); Caco-2 (heterogeneous human epithelial colorectal adenocarcinoma); and Hep-G2 (liver carcinoma). All cell lines were cultured in 75 mL culture flasks in DMEM culture media (Dulbecco's Modified Eagle's Medium, Gibco, Thermo Fisher, UK) supplemented with 10% fetal bovine serum (Gibco, Thermo Fisher, UK), 1% MEM Non-Essential Amino Acid (Sigma, UK) and 1% penicillin-streptomycin (Sigma) at 37°C in an atmosphere of 5% humidified CO2. Cells used in the study were in the logarithmic growth phase, and unless stated were grown to 70% confluence, and then trypsinized with 0.5% trypsin-EDTA (Gibco, Canada) for detachment and use in the assays. […] The cells were cultured in 96-well microtiter plates containing the respective media to a cell density of 3,000 per well at 37°C in an atmosphere of air containing 5% CO2. Cell viability was assessed after continuous exposure to various concentrations of drugs (ranging from 0.5 to 400 μM) for 24 and 48 h. Cisplatin served as a treatment evaluation standard. […] The amount of MTT reduced to formazan within the cells was quantified by measuring the absorbance at λ = 570 nm using a Fluostar Galaxy Microplate Reader. The average values presented are based on at least three independent experiments. The IC50 values were determined using GraphPad Prism 7.0 (GraphPad Software, San Diego, USA).

Data set [2] concerns Caco-2 (human epithelial colorectal adenocarcinoma) cell line. Briefly: MTT toxicity assay against Caco-2 cells. It counts as cell-based. The protocol:
as §1, with “h.” for “h. Cisplatin served as a treatment evaluation standard.”
(Tetrazolium dyes change colour on reduction, which living cells bring about.)

For data set [3], the target named is T1, human serum albumin (HSA) (Homo sapiens, UniProt P02768).
T1 construct: purchased Sigma-Aldrich
T1 sequence (P02768 25-609): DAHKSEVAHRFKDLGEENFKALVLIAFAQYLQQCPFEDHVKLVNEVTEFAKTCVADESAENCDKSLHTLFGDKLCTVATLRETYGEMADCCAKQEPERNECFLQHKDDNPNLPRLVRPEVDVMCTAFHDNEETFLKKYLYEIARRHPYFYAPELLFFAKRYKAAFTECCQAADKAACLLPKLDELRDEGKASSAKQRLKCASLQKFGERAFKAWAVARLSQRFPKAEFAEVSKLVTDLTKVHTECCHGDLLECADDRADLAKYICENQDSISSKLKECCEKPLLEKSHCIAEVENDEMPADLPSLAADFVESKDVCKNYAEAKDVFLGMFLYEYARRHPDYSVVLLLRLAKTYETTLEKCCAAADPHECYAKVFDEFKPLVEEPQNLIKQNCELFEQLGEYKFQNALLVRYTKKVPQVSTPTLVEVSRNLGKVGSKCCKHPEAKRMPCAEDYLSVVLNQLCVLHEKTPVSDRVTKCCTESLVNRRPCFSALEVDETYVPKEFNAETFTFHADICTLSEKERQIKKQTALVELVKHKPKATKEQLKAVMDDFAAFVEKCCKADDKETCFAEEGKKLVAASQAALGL
Briefly: HSA binding by tryptophan fluorescence quenching. To be noted: for Kapp (apparent HSA binding constant) / binding number n for HSA binding: [Ru complex]/[HSA] ratio 0 to 2.4, 0.1 M sodium phosphate pH 7.4. The method, then:
All solutions used in the protein binding studies were dissolved in a 0.1 M sodium phosphate buffer (pH = 7.4). Protein solutions (5 μM) were titrated with the ruthenium complexes from 2 mM stock solutions, from a metal complex/protein ratio of 0.0 to 8.0. […] All experiments were carried out in triplicate, with results presented as mean and standard deviation.
The static quenching via binding of the ruthenium complexes to HSA can be represented as: nRu+HSA→nRu⋯ HSA where nRu…HSA denotes the quenched ruthenium complex/HSA species. A double-logarithm equation of log10[(F0-F)/F] vs. log10[Ru] can then be used to express the equilibrium between the free and bound ruthenium(II) complex to determine the apparent binding constant (Kapp) and the binding number (n) (Krause-Heuer et al., [2012]). log [F0-F/F]=log10Kapp+nlog10[Ru]
It was not possible to determine a single apparent HSA binding constant, as a linear relationship was not observed over the entire concentration range of added ruthenium complex in the plot of log10[(F0 – F)/F] vs. log10[Ru]. However, two distinct linear sections could be found in the analysis of the double logarithm, corresponding to ruthenium complex to HSA ratios of (a) 0 to 2.4 and (b) 2.4 to 8. As previously observed (Li et al., [2013b]), the two binding ratio regions represent an initial 1:1 binding at low ruthenium complex concentration (ratios 0–2.4), and then upon addition of further ruthenium complex, a region (2.4–8) where multiple ruthenium complexes (≥ 2:1) are bound to HSA. The higher affinity 1:1 HSA binding constant Kapp and the binding numbers n for the ruthenium complexes determined at low ratios of added ruthenium complex are summarized in Table 2.

In data set [4] the test system is BHK (baby hamster kidney) cell line. The data set can be described thus: MTT toxicity assay against BHK cells. It counts as cell-based. The method, then: as §1
Data set [5] has as its target T1, human serum albumin (HSA). Further details: method as in Li et al., 2013b. As to conditions: ref Li et al., 2013b; cited from earlier work.
Details of data set [6]: method as in Li et al., 2017. As to conditions: mice, ref Li et al., 2017; cited from earlier work.
Data set [7] deals with eukaryotic cells (BHK, Hep-G2, Caco-2). Briefly: Toxicity to the panel of eukaryotic cell lines (comparisons). Format: cell-based. The protocol: as §1
Data set [8] relates to BHK cells. Briefly: Confocal microscopy of cellular accumulation in BHK cells. Format: cell-based, hamster. The method, then:
The trypsinized BHK cells were seeded on sterile, poly L-lysine coated, coverslips in a 24-well plate. The ruthenium complex was applied to the cells in growth media to make the desired concentration (25 μM) and incubated at 37°C with 5% CO2 for 1 h. Following the incubation, 100 nM Mitotracker® Green FM (Invitrogen) was added for mitochondrial staining. Staining was carried out in DMEM medium under standard cultivation conditions as per the manufacturer's instructions. Following staining, the coverslips were gently rinsed with phosphate buffer solution (PBS, pH = 7.1) prior to confocal laser scanning microscopy.
The cellular accumulation of the ruthenium complex was determined using a laser scanning confocal microscope (FV3000, Olympus). Samples were viewed under 60× silicone immersion using the following excitation (λex) and emission (λem) wavelengths. Ruthenium complex (λex = 450 nm, λem = 630 nm) and Mitotracker Green FM (λex = 490 nm, λem = 516 nm) were excited using a blue argon laser (λex = 488 nm), and emissions were collected at λ = 600–650 nm for the ruthenium complex and λ = 500–550 nm for Mitotracker Green. […] The luminescence intensity of cis-α-[Ru(Me4phen)(bb7)]^2+ inside the BHK cells was quantified using the surface rendering function of Imaris 9.2.1 software, and the data analyzed for statistical difference using the Wilcoxon-test and t-test methods.

Details of data set [9]: method as in Sun et al., 2018. To be noted: ref Sun et al., 2018; cited from earlier work.
Data set [10] concerns Gram-positive and Gram-negative bacteria. As to conditions: 2018, cited from earlier work; for MIC: Gram-positive and Gram-negative bacteria, ref Gorle et al., 2015, Sun et al.
Setting [11] is: 24-h incubation, read-out: IC50 Hep-G2 24 h.
Setting [12] is: 48-h incubation, read-out: IC50 Hep-G2 48 h.
[13] abbreviates: 24-h incubation, read-out: IC50 Caco-2 24 h.
[14] abbreviates: 48-h incubation, read-out: IC50 Caco-2 48 h.
The mark [15] stands for this setting: 24-h incubation, read-out: IC50 BHK 24 h.
[16] abbreviates: 48-h incubation, read-out: IC50 BHK 48 h.

Where two headings read alike, the source gives them in different places.

As for `Cc1cnc2c(ccc3c(C)c(C)cnc32)c1C.Cc1cnc2c(ccc3c(C)c(C)cnc32)c1C.Cc1cnc2c(ccc3c(C)c(C)cnc32)c1C.[Ru+2]` [(Me4phen)3, [Ru(Me4phen)3]^2+, reference compound], the IC50 (in general, the concentration needed to halve the response being measured) in data set [1] (setting [11]) is 253 ± 60 µM; in [1] (setting [12]), 72 ± 31 µM; in [2] (setting [13]), 220 ± 43 µM; in data set [2] (setting [14]), 265 ± 13 µM; in data set [4] (setting [15]) it was 157 ± 25 µM; in data set [4] (setting [16]) it was 111 ± 23 µM. Also, the “Kapp (apparent HSA binding constant)” value in [3] was 0.12 ± 0.03 × 10^5 (M)^−1. For the same compound, the “binding number n for HSA binding” value in [3] is on record as 0.81.
On to `N.N.[Cl][Pt][Cl]` [Cisplatin, reference compound], for which the IC50 is 314 ± 8 µM in data set [1] (setting [11]), 12 ± 3 µM in data set [1] (setting [12]), above 400 µM in data set [4] (setting [15]) and 146 ± 8 µM in data set [4] (setting [16]).
Consider `Cc1ccnc(-c2cc(CCCCCCCCCCCCc3ccnc(-c4cc(C)ccn4)c3)ccn2)c1.[Ru+2].[Ru+2].c1cnc2c(c1)ccc1cccnc12.c1cnc2c(c1)ccc1cccnc12.c1cnc2c(c1)ccc1cccnc12.c1cnc2c(c1)ccc1cccnc12` [Rubb12, [{Ru(phen)2}2{μ-bb12}]^4+, reference compound], for which the IC50 in data set [1] (setting [11]) was determined as 55 ± 12 µM; in data set [1] (setting [12]) it was 15 ± 5 µM; in data set [2] (setting [13]), 10 ± 1 µM; in data set [2] (setting [14]), 8 ± 3 µM; in data set [4] (setting [15]), 44 ± 9 µM; in [4] (setting [16]), 41 ± 7 µM. In addition, the “Kapp (HSA binding), previously determined” value in data set [5] is 470000 M⁻¹. Besides, in data set [5], the “effect of Q[10]-binding on HSA binding affinity” value was “decreased the affinity”. Besides, the “amount of complex in serum after intravenous injection” value in data set [6] is given as “decreased very rapidly”.
As for `Cc1ccnc(-c2cc(CCCCCCCc3ccnc(-c4cc(C)ccn4)c3)ccn2)c1.Cc1cnc2c(ccc3c(C)c(C)cnc32)c1C.[Ru+2]` [α-Me4phen-7, cis-α-[Ru(Me4phen)(bb7)]^2+], the half-maximal inhibitory concentration (IC50) is 162 ± 14 µM in [1] (setting [11]); 142 ± 8 µM in data set [1] (setting [12]); above 400 µM in data set [2] (setting [13]); above 400 µM in data set [2] (setting [14]); above 400 µM in data set [4] (setting [15]); 168 ± 5 µM in [4] (setting [16]). Besides, in data set [7] (based on 48-h incubation toxicity to BHK and Hep-G2 cells), the “fold decrease in toxicity by Q[10]-encapsulation” value is on record as 2–3 fold. Moreover, the “fold less toxic to eukaryotic cells than α-phen-12” value in [7] (from IC50 values) was 2–5 fold. For the same compound, in data set [3] (Q[10]-encapsulated vs free), the “fold higher HSA binding affinity on Q[10]-encapsulation” value is listed as 3–4 fold. In addition, in data set [3], the “Kapp (apparent HSA binding constant)” value is listed as 4.6 ± 0.90 × 10^5 (M)^−1. Also, in data set [3], the “binding number n for HSA binding” value came out at 1.14. Also, the “fold tighter HSA binding than α-phen-12 and α-Me2phen-7” value in data set [3] (from Kapp) is given as “approximately 10 fold”. In addition, the “level of cellular accumulation, free vs Q[10]-encapsulated (luminescence intensity per cell)” value in data set [8] (BHK cells, […] μM, 1-h incubation) is “no difference”. For the same compound, the “nuclear localization in BHK cells” value in data set [8] (preliminary confocal microscopy) is “did not localize in the nucleus”. Besides, in data set [9], the log P (as a rule, a log measure of how a compound divides between an organic and an aqueous phase) is −1.33. Further, the MIC (usually the lowest concentration found to suppress growth) in [10] was 1 to 10 µM. The “fold lower antimicrobial activity to Gram-negative bacteria than Rubb12” value in [10] (ref Sun et al.) is on record as “≈ 2 fold”.
Consider `Cc1ccnc(-c2cc(CCCCCCCc3ccnc(-c4cc(C)ccn4)c3)ccn2)c1.O=[N+]([O-])c1cc2cccnc2c2ncccc12.[Ru+2]` [α-NO2phen-7, cis-α-[Ru(NO2phen)(bb7)]^2+], for which the IC50 in [1] (setting [11]) was 141 ± 29 µM; in [1] (setting [12]), 99 ± 29 µM; in [2] (setting [13]), 121 ± 18 µM; in [2] (setting [14]), 126 ± 6 µM; in [4] (setting [15]), above 400 µM; in [4] (setting [16]) it was above 400 µM. Moreover, the “Kapp (apparent HSA binding constant)” value in data set [3] is on record as 23.5 ± 4.9 × 10^5 (M)^−1. For the same compound, the “binding number n for HSA binding” value in [3] stood at 1.27. The log partition coefficient (log P) in data set [9] is reported as −1.58.
Take `Cc1ccnc(-c2cc(CCCCCCCc3ccnc(-c4cc(C)ccn4)c3)ccn2)c1.[Ru+2].c1cnc2c(c1)ccc1cccnc12` [α-phen-7, cis-α-[Ru(phen)(bb7)]^2+]: the IC50 in [1] (setting [11]) is 319 ± 26 µM; in data set [1] (setting [12]), 312 ± 15 µM; in [2] (setting [13]) it was above 400 µM; in [2] (setting [14]), 219 ± 43 µM; in data set [4] (setting [15]) it was above 400 µM; in data set [4] (setting [16]), 250 ± 42 µM. In addition, the “Kapp (apparent HSA binding constant)” value in data set [3] was 0.10 ± 0.00 × 10^5 (M)^−1. Further, the “binding number n for HSA binding” value in [3] is 0.80.
On to `Cc1ccnc(-c2cc(CCCCCCCCCCCCc3ccnc(-c4cc(C)ccn4)c3)ccn2)c1.[Ru+2].c1cnc2c(c1)ccc1cccnc12` [α-phen-12, cis-α-[Ru(phen)(bb12)]^2+], for which the IC50 came to 94 ± 13 µM in [1] (setting [11]); 19 ± 3 µM in data set [1] (setting [12]); 227 ± 22 µM in data set [2] (setting [13]); 177 ± 17 µM in data set [2] (setting [14]); 92 ± 26 µM in [4] (setting [15]); 85 ± 16 µM in data set [4] (setting [16]). Further, the “fold more toxic than α-Me4phen-7” value in data set [7] (eukaryotic cells, from IC50 values) was 2–5 fold. In addition, the “Kapp (apparent HSA binding constant)” value in data set [3] is 0.43 ± 0.17 × 10^5 (M)^−1. In [3], the “binding number n for HSA binding” value amounted to 0.95. In addition, in data set [9], the “log P” value is listed as −0.9. In addition, in data set [10], the MIC is 1 to 10 µM.
Regarding “cis-α-[Ru(Me2phen)(bb7)]^2+ [α-Me2phen-7]”, the IC50 in data set [1] (setting [11]) is 358 ± 18 µM; in data set [1] (setting [12]), 151 ± 30 µM; in [2] (setting [13]), above 400 µM; in data set [2] (setting [14]) it was above 400 µM; in data set [4] (setting [15]), above 400 µM; in data set [4] (setting [16]), 250 ± 46 µM. In addition, the “Kapp (apparent HSA binding constant)” value in data set [3] is reported as 0.29 ± 0.13 × 10^5 (M)^−1. Further, the “binding number n for HSA binding” value in [3] is 0.91.
